Numbers after ± are expanded uncertainties. Each block holds one compound with its values, some of them ahead of it.
What was measured:
[1] = 298.15 K; 101.3 kPa; Liquid
[2] = xn = mol fraction of the nth substance listed; details: 298.15 K, 101.3 kPa, Liquid

- mass density [1]: 801.39 ± 0.35 kg/m3
- speed of sound [1]: 1212 ± 2 m/s
SMILES: CCCC(C)=O [pentan-2-one]

SMILES: CCOC(=O)OCC [diethyl carbonate] + CCCC(C)=O
- mass density ([2]; x2 = 0): 969.24 ± 0.27 kg/m3
- speed of sound ([2]; x2 = 0): 1178 ± 2 m/s

SMILES: CCOC(=O)OCC [diethyl carbonate]
- mass density [1]: 969.24 ± 0.27 kg/m3
- speed of sound [1]: 1178 ± 2 m/s

SMILES: CC(C)=O [acetone]
- mass density [1]: 784.37 ± 0.31 kg/m3
- speed of sound [1]: 1162 ± 2 m/s

- mass density ([2]; x1 = 0.0483): 962.08 ± 0.27 kg/m3
- speed of sound ([2]; x1 = 0.0483): 1179 ± 2 m/s
- mass density ([2]; x1 = 0.0983): 954.6 ± 0.28 kg/m3
- speed of sound ([2]; x1 = 0.0983): 1180 ± 2 m/s
- mass density ([2]; x1 = 0.1923): 940.27 ± 0.28 kg/m3
- speed of sound ([2]; x1 = 0.1923): 1183 ± 2 m/s
- mass density ([2]; x1 = 0.2988): 923.61 ± 0.29 kg/m3
- speed of sound ([2]; x1 = 0.2988): 1187 ± 2 m/s
- mass density ([2]; x1 = 0.3998): 907.38 ± 0.3 kg/m3
- speed of sound ([2]; x1 = 0.3998): 1190 ± 2 m/s
- mass density ([2]; x1 = 0.4996): 890.92 ± 0.31 kg/m3
- speed of sound ([2]; x1 = 0.4996): 1193 ± 2 m/s
- mass density ([2]; x1 = 0.6034): 873.34 ± 0.31 kg/m3
- speed of sound ([2]; x1 = 0.6034): 1197 ± 2 m/s
- mass density ([2]; x1 = 0.7077): 855.18 ± 0.32 kg/m3
- speed of sound ([2]; x1 = 0.7077): 1201 ± 2 m/s
- mass density ([2]; x1 = 0.8037): 838 ± 0.33 kg/m3
- speed of sound ([2]; x1 = 0.8037): 1204 ± 2 m/s
- mass density ([2]; x1 = 0.9026): 819.83 ± 0.34 kg/m3
- speed of sound ([2]; x1 = 0.9026): 1208 ± 2 m/s
- mass density ([2]; x1 = 0.9491): 811.1 ± 0.34 kg/m3
- speed of sound ([2]; x1 = 0.9491): 1210 ± 2 m/s
- mass density ([2]; x1 = 1): 801.39 ± 0.35 kg/m3
- speed of sound ([2]; x1 = 1): 1212 ± 2 m/s
SMILES: CCCC(C)=O [pentan-2-one] + CCOC(=O)OCC

SMILES: CCC(C)=O [butanone]
- mass density [1]: 799.7 ± 0.35 kg/m3
- speed of sound [1]: 1192 ± 2 m/s

SMILES: CC(C)=O [acetone] + CCOC(=O)OCC
- mass density ([2]; x1 = 1): 784.37 ± 0.31 kg/m3
- speed of sound ([2]; x1 = 1): 1162 ± 2 m/s

SMILES: CCOC(=O)OCC [diethyl carbonate] + CC(C)=O
- mass density ([2]; x2 = 0): 969.24 ± 0.27 kg/m3
- speed of sound ([2]; x2 = 0): 1178 ± 2 m/s
- mass density ([2]; x2 = 0.0384): 964.96 ± 0.27 kg/m3
- speed of sound ([2]; x2 = 0.0384): 1177 ± 2 m/s
- mass density ([2]; x2 = 0.0901): 959 ± 0.26 kg/m3
- speed of sound ([2]; x2 = 0.0901): 1176 ± 2 m/s
- mass density ([2]; x2 = 0.1832): 947.54 ± 0.26 kg/m3
- speed of sound ([2]; x2 = 0.1832): 1175 ± 2 m/s
- mass density ([2]; x2 = 0.2827): 934.21 ± 0.25 kg/m3
- speed of sound ([2]; x2 = 0.2827): 1173 ± 2 m/s
- mass density ([2]; x2 = 0.3847): 919.29 ± 0.25 kg/m3
- speed of sound ([2]; x2 = 0.3847): 1171 ± 2 m/s
- mass density ([2]; x2 = 0.4847): 903.08 ± 0.26 kg/m3
- speed of sound ([2]; x2 = 0.4847): 1170 ± 2 m/s
- mass density ([2]; x2 = 0.5888): 884.33 ± 0.26 kg/m3
- speed of sound ([2]; x2 = 0.5888): 1168 ± 2 m/s
- mass density ([2]; x2 = 0.6936): 863.26 ± 0.26 kg/m3
- speed of sound ([2]; x2 = 0.6936): 1166 ± 2 m/s
- mass density ([2]; x2 = 0.7967): 839.9 ± 0.27 kg/m3
- speed of sound ([2]; x2 = 0.7967): 1164 ± 2 m/s
- mass density ([2]; x2 = 0.9017): 813 ± 0.29 kg/m3
- speed of sound ([2]; x2 = 0.9017): 1162 ± 2 m/s
- mass density ([2]; x2 = 0.9546): 798.07 ± 0.3 kg/m3
- speed of sound ([2]; x2 = 0.9546): 1162 ± 2 m/s

SMILES: CCC(C)=O [butanone] + CCOC(=O)OCC
- mass density ([2]; x1 = 1): 799.7 ± 0.35 kg/m3
- speed of sound ([2]; x1 = 1): 1192 ± 2 m/s

SMILES: CCOC(=O)OCC [diethyl carbonate] + CCC(C)=O
- mass density ([2]; x2 = 0): 969.24 ± 0.27 kg/m3
- speed of sound ([2]; x2 = 0): 1178 ± 2 m/s
- mass density ([2]; x2 = 0.0486): 963.14 ± 0.27 kg/m3
- speed of sound ([2]; x2 = 0.0486): 1178 ± 2 m/s
- mass density ([2]; x2 = 0.1002): 956.52 ± 0.28 kg/m3
- speed of sound ([2]; x2 = 0.1002): 1179 ± 2 m/s
- mass density ([2]; x2 = 0.1958): 943.68 ± 0.28 kg/m3
- speed of sound ([2]; x2 = 0.1958): 1180 ± 2 m/s
- mass density ([2]; x2 = 0.2977): 929.22 ± 0.29 kg/m3
- speed of sound ([2]; x2 = 0.2977): 1181 ± 2 m/s
- mass density ([2]; x2 = 0.399): 913.95 ± 0.29 kg/m3
- speed of sound ([2]; x2 = 0.399): 1182 ± 2 m/s
- mass density ([2]; x2 = 0.4976): 898.2 ± 0.31 kg/m3
- speed of sound ([2]; x2 = 0.4976): 1184 ± 2 m/s
- mass density ([2]; x2 = 0.6444): 872.87 ± 0.31 kg/m3
- speed of sound ([2]; x2 = 0.6444): 1186 ± 2 m/s
- mass density ([2]; x2 = 0.7172): 859.36 ± 0.32 kg/m3
- speed of sound ([2]; x2 = 0.7172): 1187 ± 2 m/s
- mass density ([2]; x2 = 0.8294): 837.19 ± 0.33 kg/m3
- speed of sound ([2]; x2 = 0.8294): 1189 ± 2 m/s
- mass density ([2]; x2 = 0.9031): 821.58 ± 0.34 kg/m3
- speed of sound ([2]; x2 = 0.9031): 1190 ± 2 m/s
- mass density ([2]; x2 = 0.9554): 810.05 ± 0.34 kg/m3
- speed of sound ([2]; x2 = 0.9554): 1191 ± 2 m/s
